Laboratory results taken from patent publication US8563567B2, “Substituted heterocyclic compounds” (ArQule, Inc., priority 2009, dated 2013).
Where a name gives a salt, the structure may show the parent alone.

Columns and labels:
Abl (T315I) = Abl (T315I) (Homo sapiens, UniProt P00519, T315I); assay: Abl kinase activity assay (fluorescent ELISA, AblTide substrate); assay type: biochemical
Method: The disclosed compounds were assayed for their ability to inhibit the activity of ABL kinase. Nunc Maxisorb plates are coated with streptavidin by overnight incubation with 100 μL per well of 1 μg/mL streptavidin in DPBS. Prior to the start of the experiment, the plates are washed with TBST (3×200 μL) and blocked for at least 3 hours by adding 150 μL of 5% BSA/TBST. The plates are washed with TBST (3×200 μL/well) and left dry immediately before the capture step.
The test articles and controls (Gleevec) are prepared using the following assay buffer @ 10× desired final concentration (50 mM Tris pH 7.0, 0.02 mg/ml BSA, 10 mM MgCl2, 0.1 mM Na3VO4, 1 mM EGTA, 0.01% NP-40, 1 mM DTT in 10% glycerol/water). In a reaction plate are added rapidly 5 μL test article (or control) and 30 μL ABL or ABL T315I (0.089 nM final concentration, in the above buffer). The plate is incubated for 20 minutes. To the reaction plate is added ATP (100 μM final concentration) and AblTide (128 nM final concentration) in a volume of 15 μL. The plate is incubated at room temperature for one hour.
From the reaction plate, 40 μL is transferred to the streptavidin coated plate. The capture plate is incubated at room temperature for 30 minutes then washed 3× with TBST. To the capture plate is added 100 μL/well of Cell Signaling anti-phospho tyrosine at a dilution of 1:3000 in 2% BSA/TBST. The plate is incubated for two hours at room temperature then washed 3× with TBST. To the capture plate is added 100 μL/well of Alkaline Phosphatase Tagged Goat anti Mouse Antibody at a dilution of 1:4000 in 2% BSA/TBST. The plate is incubated for one hour at room temperature then washed 3× with TBST.
The fluorescent readout was initiated by the addition of 100 μL/well of Attophos reagent (6 mg/10 mL). The reading was done on the Perkin Elmer Envision system.

FGFR2 (N549H) = molecular target: T1, FGFR2 (N549H) (Homo sapiens, UniProt P21802, N549H); assay: FGFR2 kinase activity assay (fluorescent ELISA); assay type: biochemical
T1 construct: purchased Millipore 14-742
T1 sequence (P21802 22-821 N549H): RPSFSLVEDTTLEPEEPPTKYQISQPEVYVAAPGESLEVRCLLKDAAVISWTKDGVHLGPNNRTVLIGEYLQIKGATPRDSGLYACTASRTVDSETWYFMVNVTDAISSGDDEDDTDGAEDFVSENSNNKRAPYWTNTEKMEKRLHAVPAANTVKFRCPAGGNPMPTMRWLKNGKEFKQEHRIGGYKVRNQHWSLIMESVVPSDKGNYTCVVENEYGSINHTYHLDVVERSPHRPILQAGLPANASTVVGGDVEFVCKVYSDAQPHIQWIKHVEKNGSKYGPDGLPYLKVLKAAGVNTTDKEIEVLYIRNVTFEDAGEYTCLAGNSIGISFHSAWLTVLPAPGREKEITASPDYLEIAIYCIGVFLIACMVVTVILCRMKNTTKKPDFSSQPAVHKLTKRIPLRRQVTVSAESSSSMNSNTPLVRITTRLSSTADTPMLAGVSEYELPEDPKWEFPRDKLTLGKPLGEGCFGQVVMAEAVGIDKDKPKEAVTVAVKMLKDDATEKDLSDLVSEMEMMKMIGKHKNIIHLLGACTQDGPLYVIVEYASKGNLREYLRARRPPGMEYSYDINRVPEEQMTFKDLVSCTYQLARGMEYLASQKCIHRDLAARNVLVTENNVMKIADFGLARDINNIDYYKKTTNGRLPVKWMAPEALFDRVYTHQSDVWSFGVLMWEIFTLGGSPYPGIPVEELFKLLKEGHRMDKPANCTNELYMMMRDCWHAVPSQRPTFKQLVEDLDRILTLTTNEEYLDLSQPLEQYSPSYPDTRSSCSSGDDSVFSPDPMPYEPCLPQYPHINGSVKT
Method: The enzymatic assays described herein are conducted according to the following procedures from commercially available reagents. In one, non limiting, example, a fluorescent ELISA assay is used to identify and characterize inhibitors of FGFR2 kinase as described herein. This heterogeneous assay utilizes a biotinylated peptide with a tyrosine motif as a substrate and an anti-phospho-tyrosine antibody to measure phosphorylation of the substrate. The reaction is initiated by adding the test compound, 37 μM Pyk2 substrate (Midwest Biotech, Cat. # MBT2383), 12.5 μM ATP (Roche, Cat. #11 140 965 001) and 0.5 μM FGFR2 enzyme (Millipore, Cat. #14-742) sequentially to a non-binding polypropylene V-well plate. All reagents are in an assay buffer consisting of: 50 mM Tris-HCL, 0.02 mg/ml BSA, 10 mM MgCl2, 0.1 mM Na3VO4, 1 mM EGTA, 75 μM ATP, 0.01% NP-40, 2 mM DTT and 10% glycerol. The reaction is incubated for 60 minutes. As the reaction proceeds, FGFR2 phosphorylates tyrosines in the peptide. The reaction mixture is then moved to a blocked streptavidin-coated Nunc Maxisorb plate (coated with 100 ng streptavidin from Pierce (Cat. #15-124) per well), allowing for the capture of the biotinylated peptide. Peptides are captured for 30 minutes at room temperature, the phosphorylation of peptides continues during this phase. The reaction is stopped by washing the streptavidin-coated plate 6 times with TBST. Phosphorylated peptide is detected by adding anti-phospho-tyrosine antibody (Cell Signaling, Cat. #9411, diluted 1:3000) to the streptavidin-coated plate. Unbound anti-phospho-tyrosine antibody is removed by washing the streptavidin-coated plate 6 times with TBST. Secondary detection is performed using alkaline phosphatase tagged goat anti-mouse antibody (Pierce, Cat. #31320, diluted 1:4000) for one hour. Unbound secondary antibody is removed by washing the streptavidin-coated plate 6 times with TBST. The fluorescent readout is initiated by adding to the streptavidin-coated plate Promega Attophos substrate (Promega, Cat. # S1000, dilution=6 mg/10 ml), which, when dephosphorylated by alkaline phosphatase, emits a fluorescent signal of 595 nm in wavelength when excited by a signal of 400 nm in wavelength. The reading of the 595 nm signal is done on the Perkin Elmer Envision system. Compounds which prevent FGFR2 from phosphorylating the peptide result in a lower fluorescent signal. The 595 nm fluorescent signal is directly proportional to the activity of FGFR2. Thus, the inhibition of FGFR2 by compounds is monitored by the decrease in the 595 nm fluorescent signal.

MDA-MB-231 = assay: MTS assay, MDA-MB-231; assay type: cell-based; details: Homo sapiens, MDA-MB-231, 72 h
Method: (§1) Cells were maintained at 37° C., 5% CO2 in RPMI media supplemented with 1% fetal bovine serum, penicillin/streptomycin and fungizone (Invitrogen). Cells were seeded into 96-well tissue culture plates at 3000 per well and cultured at 37° C. for 18 h. Test compounds were dissolved and diluted to 300× in DMSO then diluted 1:40 in DMEM. Cells were incubated with test compounds for 72 hours followed by incubation with tetrazolium compound (3-(4,5-dimethylthiazol-2-yl)-5-(3-carboxymethoxyphenyl)-2-(4-sulfophenyl)-2H-tetrazolium, inner salt; MTS) and the electron coupling reagent, phenazine methosulfate (PMS) for 4 hours. […] The ability of compounds to inhibit cell growth in this assay is correlated with the reduction of dehydrogenase enzyme activity found in metabolically active cells. The measurement of the absorbance of the formazan was assessed using an ENVISION™ (Perkin Elmer) microplate reader at 492 nm. The calculated IC50 value is the concentration of the test compound that causes a 50% decrease in the absorbance.

DLD-1 = assay: MTS assay, DLD-1; assay type: cell-based; details: Homo sapiens, DLD-1, 72 h
Method: as §1

melting point [°C]	SMILES	other results
170 to 172	CCOC(=O)CNC(=O)N1CCC(CNc2nccc(-c3cn4c5c(cccc35)CCC4)n2)CC1 (as salt: trifluoroacetate) [Compound 34, ethyl 2-(4-((4-(5,6-dihydro-4H-pyrrolo[3,2,1-ij]quinolin-1-yl)pyrimidin-2-ylamino)methyl)piperidine-1-carboxamido)acetate]	–
140 to 142	O=S(=O)(c1ccc(Cl)cc1)N1CCC(CNc2nccc(-c3cn4c5c(cccc35)CCC4)n2)CC1 (as salt: trifluoroacetate) [Compound 35, N-((1-(4-chlorophenylsulfonyl)piperidin-4-yl)methyl)-4-(5,6-dihydro-4H-pyrrolo[3,2,1-ij]quinolin-1-yl)pyrimidin-2-amine]	–
170 to 172	CC(C)(C)C(=O)N1CCC(CNc2nccc(-c3cn4c5c(cccc35)CCC4)n2)CC1 (as salt: trifluoroacetate) [Compound 36, 1-(4-((4-(5,6-dihydro-4H-pyrrolo[3,2,1-ij]quinolin-1-yl)pyrimidin-2-ylamino)methyl)piperidin-1-yl)-2,2-dimethylpropan-1-one]	–

The remaining lines, values behind:

SMILES	melting point [°C]	other results
Cl.c1cc2c3c(c1)c(-c1ccnc(NCC4CCNCC4)n1)cn3CCC2	192 to 194	–
Cl.c1cc2c3c(c1)c(-c1nnnn1C1CCNCC1)cn3CCC2	198 to 200	–
O=c1[nH][nH]c(-c2ccc3ccccc3c2)c1-c1cn2c3c(cccc13)CCC2 [Compound 13, 4-(5,6-dihydro-4H-pyrrolo[3,2,1-ij]quinolin-1-yl)-5-(2-naphthyl)-1,2-dihydro-3H-pyrazol-3-one]	–	inhibition at 10 µM (Abl (T315I)): 37%; inhibition at 30 µM (FGFR2 (N549H)): 94%; inhibition at 10 µM (MDA-MB-231): 46%; inhibition at 10 µM (DLD-1): 61%
